From PMC10143968, “Chamigrane-Type Sesquiterpenes from Laurencia dendroidea as Lead Compounds against Naegleria fowleri” (Marine Drugs, 2023)
Read-outs that look alike come from different tables or passages of the source. One block for each compound: values may come before it.

Columns and labels:
[1] = test system: Naegleria fowleri ATCC 30808™ trophozoites; test: Reactive oxygen species production (CellROX Deep Red); assay type: cell-based; conditions: IC90 (2.45 µM), 24 h
Method: (§1) For the determination of the type of cell death that induces (+)-elatol (1), different commercial kits were used. […] Next, the reagents corresponding to each kit were added, allowing the appearance of programmed cell death (PCD) processes in the cells to be observed. Moreover, the percentage of stained cells was determined using the EVOS™ M5000 Software (Invitrogen by Thermo Fisher Scientific). All experiments were performed in triplicate and five different images (×40) were processed each time.
To determine the oxidative damage, the CellROX Deep Red fluorescent assay (Thermo Fisher Scientific) was used. […] These reagents produce red fluorescence with maximum absorption/emission peaks of ~644/665 nm when facing the reactive oxygen species (ROS) in the cytoplasm.
(§2) The percentage of stained cells determination in the PCD assays was calculated using the EVOS™ M5000 Software (Invitrogen by Thermo Fisher Scientific). […] The bar graph of the mitochondrial membrane potential evaluation illustrates the mean fluorescence and SD emitted by the aggregate and monomer forms of the JC-1 stain. […] Moreover, in all the PCD assays, a one-way analysis of variance (ANOVA) was assessed to study the differences between the treated and negative control trophozoites. ** p < 0.01; *** p < 0.001; **** p < 0.0001 significant differences.

N. fowleri ATCC 30215™ = test: In vitro activity against Naegleria fowleri trophozoites (alamarBlue), ATCC 30215 strain; assay type: cell-based; conditions: 37 °C, read-out: 50% inhibitory concentration (IC50) against N. fowleri ATCC 30215™
Method: (§3) The in vitro experiments were carried out using two different Naegleria fowleri type strains, ATCC 30808™ and ATCC 30215™. The cells were grown in axenic conditions as previously described in other works of our group. The strains were cultured in a level 3 biological security facility at the Instituto Universitario de Enfermedades Tropicales y Salud Pública de Canarias, Universidad de La Laguna, Spain.
(§4) An alamarBlue™-based colorimetric assay was used to determine the in vitro activity of the chamigrane-type sesquiterpenes. Briefly, a known concentration of the trophozoites (2 × 10^5 cells/mL) was incubated with serial dilutions of the compounds. After, the alamarBlue™ reagent was added and the plate was placed at 37 °C for 48 h. Finally, the fluorescence was read and a non-linear regression analysis with a 95% confidence limit, in order to reckon the 50% and 90% inhibitory concentration (IC50 and IC90), was performed.
(§5) The in vitro IC50, IC90 and CC50 were determined by a non-linear regression analysis with a 95% of confidence limit using the Graphpad Prism version 9.0 (GraphPad Software; CA; USA). Three independent experiments were performed to obtain each data, which is expressed as mean ± standard deviation (SD).

[2] = test system: Naegleria fowleri cysts (ATCC 30808™); test: In vitro cysticidal activity (alamarBlue fluorometric assay); assay type: cell-based; conditions: ATCC30808, ATCC 30808™ cysts, 24 h incubation then 72 h with alamarBlue, read-out: IC50 against N. fowleri cysts (cysticidal activity)
Method: For the in vitro cysticidal activity assays, the Naegleria fowleri ATCC 30808™ strain was used. Cysts were obtained transferring the bactocasitone grown trophozoites to the MYAS medium and keeping them for ten days in slight agitation. The in vitro activity of the compounds against the Naegleria fowleri cyst was determined using an alamarBlue™-based fluorometric assay as previously described. Mature cysts were incubated with serial dilutions of the evaluated compound for 24 h at 37 °C. After that, the medium was removed and fresh bactocasitone was added. Later, the alamarBlue® reagent was placed and the plates were incubated for 72 additional hours at 37 °C. Finally, the EnSpire Multimode Plate Reader (PerkinElmer, Madrid, Spain) was used to read the fluorescence and calculate the IC50 as described in Section 4.3. The in vitro IC50, IC90 and CC50 were determined by a non-linear regression analysis with a 95% of confidence limit using the Graphpad Prism version 9.0 (GraphPad Software; CA; USA). Three independent experiments were performed to obtain each data, which is expressed as mean ± standard deviation (SD).

[3] = test system: Naegleria fowleri (ATCC 30808™) trophozoites; assay type: cell-based; conditions: not told
Method: as §1
The permeability of the plasma membrane was assessed with the SYTOX Green® stain. The plasma membrane is impermeable to the dye in healthy conditions. However, when the permeability of the plasma membrane is compromised, the SYTOX Green® enters the cells, binds the DNA and emits an intense green fluorescence at 523 nm wavelength.
as §2

[4] = test system: Naegleria fowleri ATCC 30808™ trophozoites; test: Chromatin condensation (Hoechst 33342/PI double stain); assay type: cell-based; conditions: IC90 (2.45 µM), 24 h
Method: as §1
The condensed chromatin was detected with the double-stain apoptosis detection kit (Hoechst 33342/PI) (Life Technologies, Madrid, Spain). The Hoechst 33342 stain emits blue fluorescence in the presence of condensed chromatin while the Propidium iodide (PI) is able to travel through the membrane of dead cells and emit a red fluorescence.
as §2

[5] = test system: Murine Macrophages J774.A1; test: In vitro cytotoxicity (alamarBlue); assay type: cell-based; conditions: mouse, 24 h
Method: (§6) The cytotoxicity assays were carried out in a murine macrophages cell line (ATCC TIB-67). The cells were incubated in Dulbecco’s Modified Eagle’s medium (GIBCO, Thermo Fisher Scientific, Madrid, Spain) (DMEM, w/v) supplemented with 10% (v/v) fetal bovine serum (FBS) and 10 µg/mL of gentamicin (Sigma-Aldrich, Madrid, Spain) at 37 °C in a 5% of CO2 atmosphere. The in vitro cytotoxicity of the compounds was determined following the alamarBlue ™ protocol mentioned in the previous section. Murine macrophages were incubated with serial dilutions of the evaluated molecules for 24 h at 37 °C and in presence of 5% of CO2. Finally, the 50% cytotoxic concentration (CC50) was determined after reading the fluorescence. The in vitro IC50, IC90 and CC50 were determined by a non-linear regression analysis with a 95% of confidence limit using the Graphpad Prism version 9.0 (GraphPad Software; CA; USA). Three independent experiments were performed to obtain each data, which is expressed as mean ± standard deviation (SD).

[6] = test system: Naegleria fowleri ATCC 30808™ trophozoites; test: Mitochondrial membrane potential (JC-1); assay type: cell-based; conditions: IC90 (2.45 µM), 24 h
Method: as §1
For determining mitochondrial damage in treated amoebae, two different assays were performed. Firstly, to measure the collapse of the transmembrane electrochemical gradient, a lipophilic cationic dye called JC-1 (Cayman Chemicals Vitro SA, Madrid, Spain) was used. […] When the membrane potential is high, the fluorophore will be found in the mitochondria in the j-aggregates form emitting red fluorescence at 595 nm. On the other hand, when membrane depolarization occurs, the reagent disperses and remains in its monomeric form showing green fluorescence at 535 nm.
The percentage of stained cells determination in the PCD assays was calculated using the EVOS™ M5000 Software (Invitrogen by Thermo Fisher Scientific). […] The bar graph of the mitochondrial membrane potential evaluation illustrates the mean fluorescence and SD emitted by the aggregate and monomer forms of the JC-1 stain. […]

[7] = test system: Naegleria fowleri ATCC 30808™ trophozoites; test: ATP production (CellTiter-Glo); assay type: cell-based; conditions: IC90 (2.45 µM), 24 h
Method: as §1
Afterwards, to validate the mitochondrial damage, the levels of ATP produced in the amoebae treated with the IC90 of the compound were analyzed using the CellTiter-Glo® Luminescent Cell Viability Assay reagent (Promega Biotech Ibérica S.L, Madrid, Spain) following manufacturer’s instructions.

N. fowleri ATCC 30808™ = test: In vitro activity against Naegleria fowleri trophozoites (alamarBlue), ATCC 30808 strain; assay type: cell-based; conditions: for IC50: trophozoites, alamarBlue, 48 h, 37 °C, read-out: 50% inhibitory concentration (IC50) against N. fowleri ATCC 30808™
Method: as §3, §4, §5

[8] = In vitro cytotoxicity (alamarBlue); assay type: cell-based, murine; conditions: mouse
Method: as §6

[9] = Naegleria fowleri, ATCC30215, 48 h
[10] = Naegleria fowleri, ATCC30808, 48 h
[11] = J774.A1 murine macrophage cell line (ATCC TIB-67), alamarBlue, 24 h, 37 °C, read-out: 50% cytotoxic concentration (CC50) against murine macrophages J774.A1

Compound: C=C1CC(O)C(Br)C(C)(C)C12CCC(C)=C(Cl)C2 (single isomer, unassigned; (+)) [(+)-Elatol (1), (+)-elatol]
- ROS generation (CellROX Deep Red) [1]: induces the over-generation of ROS
- IC50 (N. fowleri ATCC 30215™; 48 h): 1.14 ± 0.09 µM
- IC50 [2]: 1140 nM
- plasma membrane permeability (SYTOX Green fluorescence) [3]: plasma membrane is damaged in treated cells
- chromatin condensation (Hoechst 33342 fluorescence) [4]: intense blue fluorescence
- propidium iodide staining (red fluorescence) [4]: absence of the red fluorescence
- CC50 [5]: 61.5 ± 13 µM
- mitochondrial membrane potential (JC-1) [6]: depolymerization of the mitochondrial membrane potential
- reduction of ATP production compared to untreated cells [7]: 82.11%
- IC90 (N. fowleri ATCC 30808™; Naegleria fowleri, ATCC30808, ATCC 30808™ strain): 2450 nM
- IC50 (N. fowleri ATCC 30808™): 1.08 ± 0.09 µM

Compound: C=C1CC(O)C(Br)C(C)(C)C12CCC(C)=C(Cl)C2 (single isomer, unassigned; (-)) [(−)-Elatol (2), (−)-elatol]
- IC50 (N. fowleri ATCC 30215™; 48 h): 38 ± 7.61 µM
- CC50 [5]: > 150 µM
- fold less potent than (+)-elatol (1) (N. fowleri ATCC 30808™; IC50 ratio against N. fowleri trophozoites): 34 fold
- IC50 (N. fowleri ATCC 30808™): 36.8 ± 8.03 µM

Compound: C=C1C[C@H](O)CC(C)(C)[C@@]12CCC(C)=C(Cl)C2 [(+)-Debromoelatol (3), (+)-debromoelatol]
- IC50 (N. fowleri ATCC 30808™; [10]): > 98.1 µM

Compound: C[C@@H]1[C@H](O)[C@@H](C)/C=C/C=C/C=C/C=C/C=C/C=C/C=C/[C@H](O[C@@H]2O[C@H](C)[C@@H](O)[C@H](N)[C@@H]2O)C[C@@H]2O[C@](O)(C[C@@H](O)C[C@@H](O)[C@H](O)CC[C@@H](O)C[C@@H](O)CC(=O)O[C@H]1C)C[C@H](O)[C@H]2C(=O)O [Amphotericin B, reference compound]
- CC50 at 24 h [8, 11]: > 200 µM
- IC50 (N. fowleri ATCC 30808™; [10]): 0.12 ± 0.03 µM

Compound: CCCCCCCCCCCCCCCCOP(=O)([O-])OCC[N+](C)(C)C [Miltefosine, reference compound]
- IC50 (N. fowleri ATCC 30215™; [9]): 81.6 ± 7.23 µM
- CC50 at 24 h [8, 11]: 128 ± 8.85 µM
- IC50 (N. fowleri ATCC 30808™; [10]): 38.7 ± 4.23 µM

More lines, main results first:

- IC50 (N. fowleri ATCC 30215™; [9]): 9.71 ± 0.82 µM
- IC50 (N. fowleri ATCC 30808™; [10]): 22.5 ± 5.81 µM
Compound: C=C1CC(O)C(Br)C(C)(C)C12CCC(C)(Cl)C(Br)C2 (single isomer, unassigned; (-)) [(−)-Rogiolol (5), (−)-rogiolol]
- CC50 at 24 h ([8]; 50% cytotoxic concentration (CC50) against murine macrophages J774.A1): 142 ± 17.2 µM

- IC50 (N. fowleri ATCC 30808™; [10]): > 83.5 µM
Compound: C=C1C[C@H](O)[C@H](Br)C(C)(C)[C@]12CC=C(C)CC2 [(+)-Dechloroelatol (4), (+)-dechloroelatol]

- IC50 (N. fowleri ATCC 30808™; [10]): > 71.1 µM
Compound: C=C1C[C@@H](O)[C@@H](Br)C(C)(C)[C@]12CC[C@@](C)(O)[C@@H](Cl)C2 [(+)-Dendroidiol (7), (−)-dendroidiol]

- IC50 (N. fowleri ATCC 30808™; [10]): > 62.7 µM
Compound: C=C1CC[C@@H](Br)C(C)(C)[C@@]12CC[C@@](C)(Br)[C@H](Cl)C2 [(+)-Obtusane (10), (+)-obtusane]

- IC50 (N. fowleri ATCC 30808™; [10]): > 60.3 µM
Compound: C=C1C[C@@H](O)[C@@H](Br)C(C)(C)[C@]12CC[C@](C)(Br)[C@@H](Cl)C2 [(+)-Obtusol (9), (+)-obtusol]

- IC50 (N. fowleri ATCC 30808™; [10]): > 62.7 µM
Compound: CC1=CC[C@@H](Br)C(C)(C)[C@]12CC[C@](C)(Br)[C@@H](Cl)C2 [(−)-3,10-dibromo-4-chloro-alpha-chamigrane]

- IC50 (N. fowleri ATCC 30808™; [10]): > 60.3 µM
Compound: C=C1C[C@@H](O)[C@@H](Br)C(C)(C)[C@]12CC[C@@](C)(Cl)[C@H](Br)C2 [(−)-Cartilagineol (8), (−)-cartilagenol]
